Results as given in patent US6375999B1, “Methods for treating potatoes” (priority 1993, dated 2002).

What was measured:
stored potatoes [1] = assay: low humidity storage after early treatment with 1,4-DMN; type: in vivo, potato; details: storage conditions of 85%, and less
Description: No approved method exists for treating silver scruff. Effective fungicides are not approved for treatment of potatoes. […] A disadvantage of low humidity storage is that such potatoes dehydrate and soften. This causes the potatoes to be less acceptable for certain markets and results in some loss of product.

freshly dug potatoes = assay: outdoor pile of injured, freshly dug potatoes sprayed with pure 1,4-dimethyl naphthalene; type: in vivo, potato; details: outdoors, humidity about 40%, no control sample
Description: A pile of freshly dug potatoes having considerable injuries such as cuts, scrapes and abrasions were sprayed with pure 1,4-dimethyl naphthalene. The pile was located outdoors with a humidity condition of about 40%. […] Although a control sample wasn't used, potatoes with such a large quantity of cuts, abrasions and the like in an exposed, low humidity environment would typically show minimal healing and a considerable amount of rot.

[2] = system: potatoes which have started to sprout; assay: treatment of potatoes which have started to sprout; type: in vivo, potato; details: certain types of potatoes which have started to sprout
Description: For example, in treating a potato storage facility with liquid sprout inhibitor such as an isomer of DMN, especially the 1,4 and 1,6 isomers of DMN, it is only necessary to have a very low concentration of DMN in the atmosphere inasmuch as the quantity of DMN in a potato is very low so that only very minor quantities of DMN respire or exit the potato. Thus, only a very low partial pressure for DMN is created in a static air space surrounding a potato by respiration. The purpose of DMN in the atmosphere surrounding potatoes is to stop or reduce the exiting of DMN from the potato. Once DMN exiting starts, it is believed that such departure initiates the process which leads to sprouting. […] Thus, in applying liquid sprout inhibitors which are found natively in potatoes it is generally preferred to initiate treatment prior to the onset of sprouting and preferably prior to any considerable exiting of DMN, for example, from the stored potato.
Although, as indicated in the Plant patent, CIPC is not applied until after suberization (wound healing). DMN is preferably applied initially shortly after the potatoes have been put into the facility. […] Also, unlike CIPC, DMN is not a foreign material to a potato.

stored potatoes [3] = details: early application to stored potatoes; cited from earlier work

Row | Structure (SMILES) | hydration and firmness of potatoes in low humidity storage (stored potatoes [1]) | evidence of rot in injured potatoes (freshly dug potatoes; about two days after spraying) | time after spraying until suberization processes appeared to be complete (freshly dug potatoes; pure compound sprayed) | effect on sprouting once sprouting has been initiated [2] | effect on suberization (stored potatoes [3])
1 | Cc1ccc(C)c2ccccc12 [1,4-dimethyl naphthalene] | stay hydrated and firm | only a small portion of the injured potatoes showing any evidence of rot | two |  | 
2 | CC(C)OC(=O)Nc1cccc(Cl)c1 [CIPC, Chloroisopropyl-N-carbamate] |  |  |  | generally retard potato sprouting even after sprouting has been initiated | tends to retard suberization
